# Experiments:
# Test in all cases: Test B pre-/postemergence plant response
# Assay type in all cases: in vivo
# [1] = system: johnsongrass (Sorghum halepense)
# How it was run: (§1)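 Test compounds, formulated in a non-phytotoxic solvent mixture with surfactant, are applied to the soil surface (loam and sand blend) right after seeding, or sprayed over plants at the 1- to 4-leaf stage grown in peat moss/vermiculite medium. After 13 to 15 days under glasshouse conditions, each species is scored visually from 0 (no effect) to 100 (complete control) against controls.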
# [2] = system: large crabgrass (Digitaria sanguinalis)
# How it was run: as §1
# [3] = system: pigweed (Amaranthus retroflexus)
# How it was run: as §1
# [4] = system: lambsquarters (Chenopodium album)
# How it was run: as §1
# [5] = system: goosegrass (Eleusine indica)
# How it was run: as §1
# [6] = system: ragweed (common ragweed, Ambrosia elatior)
# How it was run: as §1
# kochia (Kochia scoparia) = system: kochia (Kochia scoparia)
# How it was run: as §1
# wild oat (Avena fatua) = system: wild oat (Avena fatua)
# How it was run: as §1
# [7] = system: Surinam grass (Brachiaria decumbens)
# How it was run: as §1
# soybean (Glycine max) = system: soybean (Glycine max)
# How it was run: as §1
# [8] = system: velvetleaf (Abutilon theophrasti)
# How it was run: as §1
# [9] = system: woolly cupgrass (Eriochloa villosa)
# How it was run: as §1
# [10] = system: Italian ryegrass (Lolium multiflorum)
# How it was run: as §1
# corn (Zea mays) = system: corn (Zea mays)
# How it was run: as §1
# [11] = system: downy bromegrass (Bromus tectorum)
# How it was run: as §1
# [12] = system: yellow nutsedge (Cyperus esculentus)
# How it was run: as §1
# [13] = system: wheat (Triticum aestivum)
# How it was run: as §1
# [14] = system: blackgrass (Alopecurus myosuroides)
# How it was run: as §1
# [15] = Postemergence, 31 g ai/ha, 0 to 100 scale (0 no effect, 100 complete control)
# [16] = Postemergence, 125 g ai/ha, scale 0 (no effect) to 100 (complete control), 13 to 15 days
# [17] = Postemergence, 250 g ai/ha, scale 0 to 100 (0 no effect, 100 complete control), 13 to 15 days
# [18] = Postemergence, 62 g ai/ha, scale 0 to 100 (0 no effect, 100 complete control)
# [19] = Preemergence, 31 g ai/ha, scale 0 to 100 (0 no effect, 100 complete control)
# [20] = Preemergence, 62 g ai/ha, scale 0 to 100, 0 no effect, 100 complete control
# [21] = Preemergence, 125 g ai/ha, scale 0 to 100, 0 no effect, 100 complete control
# [22] = Preemergence, 250 g ai/ha, 0 to 100 scale
compound,measurement,setting,value
COCCCn1c(-c2cc(F)cc(F)c2)ncc(C(=O)C2=C(O)C3CCC(C3)C2=O)c1=O (stereo not drawn) [Compound 244],"Plant response rating, Johnsongrass",[1]; [15],85
same,"Plant response rating, Johnsongrass",[1]; [16],100
same,"Plant response rating, Johnsongrass",[1]; [17],100
same,"Plant response rating, Johnsongrass",[1]; [18],95
same,"Plant response rating, Johnsongrass",[1]; [19],70
same,"Plant response rating, Johnsongrass",[1]; [20],85
same,"Plant response rating, Johnsongrass",[1]; [21],100
same,Johnsongrass plant response rating,[1]; [22],100
same,"Plant response rating, Crabgrass, Large",[2]; [15],80
same,"Plant response rating, Crabgrass, Large",[2]; [16],100
same,"Plant response rating, Crabgrass, Large",[2]; [17],100
same,"Plant response rating, Crabgrass, Large",[2]; [18],100
same,"Plant response rating, Crabgrass, Large",[2]; [19],98
same,"Plant response rating, Crabgrass, Large",[2]; [20],100
same,"Plant response rating, Crabgrass, Large",[2]; [21],100
same,"Crabgrass, Large plant response rating",[2]; [22],100
same,"Plant response rating, Pigweed",[3]; [15],95
same,"Plant response rating, Pigweed",[3]; [16],100
same,"Plant response rating, Pigweed",[3]; [17],100
same,"Plant response rating, Pigweed",[3]; [18],100
same,"Plant response rating, Pigweed",[3]; [19],100
same,"Plant response rating, Pigweed",[3]; [20],100
same,"Plant response rating, Pigweed",[3]; [21],100
same,Pigweed plant response rating,[3]; [22],100
same,"Plant response rating, Lambsquarters",[4]; [15],100
same,"Plant response rating, Lambsquarters",[4]; [16],100
same,"Plant response rating, Lambsquarters",[4]; [17],100
same,"Plant response rating, Lambsquarters",[4]; [18],100
same,"Plant response rating, Lambsquarters",[4]; [19],100
same,"Plant response rating, Lambsquarters",[4]; [20],100
same,"Plant response rating, Lambsquarters",[4]; [21],100
same,Lambsquarters plant response rating,[4]; [22],100
same,"Plant response rating, Goosegrass",[5]; [15],85
same,"Plant response rating, Goosegrass",[5]; [16],98
same,"Plant response rating, Goosegrass",[5]; [17],98
same,"Plant response rating, Goosegrass",[5]; [18],95
same,"Plant response rating, Goosegrass",[5]; [19],98
same,"Plant response rating, Goosegrass",[5]; [20],100
same,"Plant response rating, Goosegrass",[5]; [21],100
same,Goosegrass plant response rating,[5]; [22],100
same,"Plant response rating, Ragweed",[6]; [15],98
same,"Plant response rating, Ragweed",[6]; [16],98
same,"Plant response rating, Ragweed",[6]; [17],100
same,"Plant response rating, Ragweed",[6]; [18],98
same,"Plant response rating, Ragweed",[6]; [19],70
same,"Plant response rating, Ragweed",[6]; [20],95
same,"Plant response rating, Ragweed",[6]; [21],100
same,Ragweed plant response rating,[6]; [22],100
same,"Plant response rating, Kochia",kochia (Kochia scoparia); [15],85
same,"Plant response rating, Kochia",kochia (Kochia scoparia); [16],100
same,"Plant response rating, Kochia",kochia (Kochia scoparia); [17],100
same,"Plant response rating, Kochia",kochia (Kochia scoparia); [18],90
same,"Plant response rating, Kochia",kochia (Kochia scoparia); [19],85
same,"Plant response rating, Kochia",kochia (Kochia scoparia); [20],90
same,"Plant response rating, Kochia",kochia (Kochia scoparia); [21],95
same,Kochia plant response rating,kochia (Kochia scoparia); [22],100
same,"Plant response rating, Oat, Wild",wild oat (Avena fatua); [15],50
same,"Plant response rating, Oat, Wild",wild oat (Avena fatua); [16],95
same,"Plant response rating, Oat, Wild",wild oat (Avena fatua); [17],98
same,"Plant response rating, Oat, Wild",wild oat (Avena fatua); [18],70
same,"Plant response rating, Oat, Wild",wild oat (Avena fatua); [19],0
same,"Plant response rating, Oat, Wild",wild oat (Avena fatua); [20],5
same,"Plant response rating, Oat, Wild",wild oat (Avena fatua); [21],10
same,"Oat, Wild plant response rating",wild oat (Avena fatua); [22],40
same,"Plant response rating, Surinam Grass",[7]; [15],90
same,"Plant response rating, Surinam Grass",[7]; [16],100
same,"Plant response rating, Surinam Grass",[7]; [17],100
same,"Plant response rating, Surinam Grass",[7]; [18],95
same,"Plant response rating, Surinam Grass",[7]; [19],75
same,"Plant response rating, Surinam Grass",[7]; [20],100
same,"Plant response rating, Surinam Grass",[7]; [21],100
same,Surinam Grass plant response rating,[7]; [22],100
same,"Plant response rating, Soybean",soybean (Glycine max); [15],85
same,"Plant response rating, Soybean",soybean (Glycine max); [16],100
same,"Plant response rating, Soybean",soybean (Glycine max); [17],100
same,"Plant response rating, Soybean",soybean (Glycine max); [18],100
same,"Plant response rating, Soybean",soybean (Glycine max); [19],70
same,"Plant response rating, Soybean",soybean (Glycine max); [20],80
same,"Plant response rating, Soybean",soybean (Glycine max); [21],90
same,Soybean plant response rating,soybean (Glycine max); [22],95
same,"Plant response rating, Velvetleaf",[8]; [15],100
same,"Plant response rating, Velvetleaf",[8]; [16],100
same,"Plant response rating, Velvetleaf",[8]; [17],100
same,"Plant response rating, Velvetleaf",[8]; [18],100
same,"Plant response rating, Velvetleaf",[8]; [19],100
same,"Plant response rating, Velvetleaf",[8]; [20],100
same,"Plant response rating, Velvetleaf",[8]; [21],100
same,Velvetleaf plant response rating,[8]; [22],100
same,"Plant response rating, Cupgrass, Woolly",[9]; [15],100
same,"Plant response rating, Cupgrass, Woolly",[9]; [16],100
same,"Plant response rating, Cupgrass, Woolly",[9]; [17],100
same,"Plant response rating, Cupgrass, Woolly",[9]; [18],100
same,"Plant response rating, Cupgrass, Woolly",[9]; [19],45
same,"Plant response rating, Cupgrass, Woolly",[9]; [20],55
same,"Plant response rating, Cupgrass, Woolly",[9]; [21],95
same,"Cupgrass, Woolly plant response rating",[9]; [22],100
same,"Plant response rating, Ryegrass, Italian",[10]; [15],35
same,"Plant response rating, Ryegrass, Italian",[10]; [16],80
same,"Plant response rating, Ryegrass, Italian",[10]; [17],95
same,"Plant response rating, Ryegrass, Italian",[10]; [18],60
same,"Plant response rating, Ryegrass, Italian",[10]; [19],0
same,"Plant response rating, Ryegrass, Italian",[10]; [20],0
same,"Plant response rating, Ryegrass, Italian",[10]; [21],5
same,"Ryegrass, Italian plant response rating",[10]; [22],45
same,"Plant response rating, Corn",corn (Zea mays); [15],85
same,"Plant response rating, Corn",corn (Zea mays); [16],95
same,"Plant response rating, Corn",corn (Zea mays); [17],100
same,"Plant response rating, Corn",corn (Zea mays); [18],90
same,"Plant response rating, Corn",corn (Zea mays); [19],5
same,"Plant response rating, Corn",corn (Zea mays); [20],25
same,"Plant response rating, Corn",corn (Zea mays); [21],60
same,Corn plant response rating,corn (Zea mays); [22],85
same,"Plant response rating, Bromegrass, Downy",[11]; [15],40
same,"Plant response rating, Bromegrass, Downy",[11]; [16],75
same,"Plant response rating, Bromegrass, Downy",[11]; [17],80
same,"Plant response rating, Bromegrass, Downy",[11]; [18],50
same,"Plant response rating, Bromegrass, Downy",[11]; [19],0
same,"Plant response rating, Bromegrass, Downy",[11]; [20],0
same,"Plant response rating, Bromegrass, Downy",[11]; [21],5
same,"Bromegrass, Downy plant response rating",[11]; [22],30
same,"Plant response rating, Nutsedge, Yellow",[12]; [15],45
same,"Plant response rating, Nutsedge, Yellow",[12]; [16],65
same,"Plant response rating, Nutsedge, Yellow",[12]; [17],75
same,"Plant response rating, Nutsedge, Yellow",[12]; [18],50
same,"Plant response rating, Nutsedge, Yellow",[12]; [19],20
same,"Plant response rating, Nutsedge, Yellow",[12]; [20],60
same,"Plant response rating, Nutsedge, Yellow",[12]; [21],80
same,"Nutsedge, Yellow plant response rating",[12]; [22],95
same,"Plant response rating, Wheat",[13]; [15],60
same,"Plant response rating, Wheat",[13]; [16],85
same,"Plant response rating, Wheat",[13]; [17],95
same,"Plant response rating, Wheat",[13]; [18],80
same,"Plant response rating, Wheat",[13]; [19],0
same,"Plant response rating, Wheat",[13]; [20],0
same,"Plant response rating, Wheat",[13]; [21],5
same,Wheat plant response rating,[13]; [22],45
same,"Plant response rating, Blackgrass",[14]; [15],50
same,"Plant response rating, Blackgrass",[14]; [16],65
same,"Plant response rating, Blackgrass",[14]; [17],85
same,"Plant response rating, Blackgrass",[14]; [18],60
same,"Plant response rating, Blackgrass",[14]; [19],35
same,"Plant response rating, Blackgrass",[14]; [20],35
same,"Plant response rating, Blackgrass",[14]; [21],60
same,Blackgrass plant response rating,[14]; [22],70
